Test results as given in article PMC3933693, “Novel Inhibitors of Mitochondrial sn-Glycerol 3-phosphate Dehydrogenase” (PLoS ONE, 2014).
“And” between values parts separate entries of the source, which are not always exact repeats. Equal entries are not always repeated.

Assays:
cortical synaptosomes = test: Synaptosomal respiration (Seahorse XF24); assay type: cell-based, mouse; details: 100 µM iGP-1, 0.5 mM aminooxyacetate
Description: Synaptosomal respiration was tested in the Seahorse XF24 using published protocols, [41]. Synaptosomes (20 or 25 µg protein) were attached to polyethyleneimine and Geltrex-coated Seahorse plates by centrifugation in ionic medium, [41] containing 10 mM glucose. Attachment buffer was carefully replaced with ionic buffer containing DMSO, 100 µM iGP-1, 0.5 mM aminooxyacetate, or iGP-1 with aminooxyacetate, and either 10 mM pyruvate or 15 mM glucose. Plates were equilibrated for 20 min at 37°C then loaded into the instrument followed by measurement of basal respiration and injection of 5 µM FCCP (to induce maximal, uncoupled respiration) with 4 µg ⋅ mL^−1 oligomycin (to prevent compensatory reversal of ATP synthase). In some experiments, 10 mM oxamate was added with the FCCP/oligomycin to minimize regeneration of cytosolic NAD^+ by lactate dehydrogenase. Inhibition of the malate-aspartate shuttle was defined as the difference between maximal rates ± aminooxyacetate, expressed as % of control. Inhibition of the glycerol phosphate shuttle was the difference between maximal rates with aminooxyacetate ± iGP-1, as % of control.

[1] = target: T1, flavin site of complex II (site IIF) (Rattus norvegicus, UniProt Q920L2); test: Site-specific H2O2 production from site IIF in skeletal muscle mitochondria; assay type: biochemical
T1 construct: from tissue; host or cells: skeletal muscle mitochondria
T1 sequence (Q920L2 35-656): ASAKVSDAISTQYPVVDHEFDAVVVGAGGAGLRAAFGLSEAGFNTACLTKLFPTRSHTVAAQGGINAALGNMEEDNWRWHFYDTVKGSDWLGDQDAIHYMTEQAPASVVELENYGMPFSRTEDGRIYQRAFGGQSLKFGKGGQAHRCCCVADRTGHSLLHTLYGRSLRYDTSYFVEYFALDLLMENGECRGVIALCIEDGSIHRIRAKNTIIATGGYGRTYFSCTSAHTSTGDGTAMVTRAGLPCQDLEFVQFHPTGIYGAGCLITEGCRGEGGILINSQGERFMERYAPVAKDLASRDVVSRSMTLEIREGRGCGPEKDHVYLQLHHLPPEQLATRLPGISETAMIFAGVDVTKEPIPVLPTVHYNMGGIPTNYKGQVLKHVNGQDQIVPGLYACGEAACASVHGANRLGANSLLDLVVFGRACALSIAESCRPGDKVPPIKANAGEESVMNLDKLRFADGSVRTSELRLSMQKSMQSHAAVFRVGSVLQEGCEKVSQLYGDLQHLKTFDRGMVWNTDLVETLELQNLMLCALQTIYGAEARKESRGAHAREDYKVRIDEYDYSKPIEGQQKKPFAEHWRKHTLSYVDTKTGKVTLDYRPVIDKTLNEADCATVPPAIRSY
T1 sequence (P21913 31-282 partner): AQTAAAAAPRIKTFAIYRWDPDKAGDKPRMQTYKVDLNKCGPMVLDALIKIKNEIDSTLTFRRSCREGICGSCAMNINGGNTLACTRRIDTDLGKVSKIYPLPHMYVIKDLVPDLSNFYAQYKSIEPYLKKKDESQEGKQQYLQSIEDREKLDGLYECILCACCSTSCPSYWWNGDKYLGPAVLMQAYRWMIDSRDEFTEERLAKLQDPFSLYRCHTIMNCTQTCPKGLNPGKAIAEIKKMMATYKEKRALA
T1 sequence (Q641Z9 30-169 partner limits assumed): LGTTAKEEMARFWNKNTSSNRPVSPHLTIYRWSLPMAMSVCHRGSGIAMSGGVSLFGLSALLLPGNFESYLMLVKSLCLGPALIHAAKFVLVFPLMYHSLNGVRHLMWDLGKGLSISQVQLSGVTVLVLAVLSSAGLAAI
T1 sequence (Q6PCT8 57-159 partner): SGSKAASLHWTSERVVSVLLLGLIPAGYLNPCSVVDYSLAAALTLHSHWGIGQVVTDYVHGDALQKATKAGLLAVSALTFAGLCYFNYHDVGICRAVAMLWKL
How it was run: (§1)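 Isolated rat skeletal muscle mitochondria; H2O2 read by Amplex UltraRed with added SOD and HRP. Site IF/DH: 5 mM glutamate, 5 mM malate, 4 µM rotenone. Site IIF: palmitoylcarnitine or succinate with rotenone/antimycin A/myxothiazol. Site IIIQo: succinate, rotenone, antimycin A. Screen at 2.5 µM, normalised as % change from DMSO.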

[2] = tested on: skeletal muscle mitochondria; test: Mitochondrial membrane potential (ΔΨm, TMRM) powered by glycerol phosphate; assay type: biochemical, rat; details: 16.7 mM glycerol phosphate; for ΔΨm with GP + Nig (% change at 80 μM): 4 µM rotenone, nigericin
Description: (§2) Mitochondrial membrane potential (ΔΨm) was estimated fluorimetrically as described previously [33] on the Varian fluorimeter, except the potentiometric dye TMRM was used in quench-mode in place of safranine O [34]. […] The effect of putative small-molecule inhibitors was normalized as the % change in fluorescence between vehicle treatment and complete depolarization by the uncoupler carbonyl cyanide-4-(trifluoromethoxy)phenylhydrazone (FCCP, 2 µM) added at the end of each run. When indicated, the K^+/H^+ exchanger nigericin (80 ng ⋅ ml^−1) was added to collapse the pH gradient across the mitochondrial inner membrane (ΔpH) and maximize ΔΨm.
(§3) Additionally, four microplate assays for ΔΨm were run in parallel to the H2O2 assays. These assays were as described under “Measurement of mitochondrial H2O2 production and membrane potential” except that each substrate condition was assayed in a separate microplate. […] Plates were incubated in the dark at room temperature for 30–40 min (H2O2) or 10–15 min (ΔΨm) after the addition of substrate, and endpoint fluorescence was measured on the Victor plate reader. […] Endpoints for the ΔΨm assays were determined in pilot experiments as the times for TMRM accumulation to reach a steady state. At room temperature, this was typically ∼ 5 min and remained stable for at least 30 min. Endpoint fluorescence values were normalized as described in the previous section with wells containing FCCP serving as positive controls for the ΔΨm assays.

[3] = tested on: skeletal muscle mitochondria; test: Mitochondrial membrane potential (ΔΨm, TMRM) powered by succinate; assay type: biochemical, rat; details: 2.5 mM; 5 mM succinate, rotenone, nigericin
Description: Mitochondrial membrane potential (ΔΨm) was estimated fluorimetrically as described previously on the Varian fluorimeter, except the potentiometric dye TMRM was used in quench-mode in place of safranine O [34]. […] The effect of putative small-molecule inhibitors was normalized as the % change in fluorescence between vehicle treatment and complete depolarization by the uncoupler carbonyl cyanide-4-(trifluoromethoxy)phenylhydrazone (FCCP, 2 µM) added at the end of each run. When indicated, the K^+/H^+ exchanger nigericin (80 ng ⋅ ml^−1) was added to collapse the pH gradient across the mitochondrial inner membrane (ΔpH) and maximize ΔΨm.
The assay buffer for both H2O2 and ΔΨm measurements was 120 mM KCl, 5 mM HEPES, 1 mM EGTA, 0.3% (w/v) BSA without or with 250 nM free calcium at pH 7.0. All assays were performed with stirring at 37°C.
Structure/activity analysis was performed on 18 structural analogs of two structurally-related hits from the primary screen (iGP-1 and iGP-2). These 20 compounds were tested in duplicate at 0.08–80 µM (0.1% DMSO final) in microplate format for effects on site-specific H2O2 production as described above. Additionally, four microplate assays for ΔΨm were run in parallel to the H2O2 assays. These assays were as described under “Measurement of mitochondrial H2O2 production and membrane potential” except that each substrate condition was assayed in a separate microplate. […] Plates were incubated in the dark at room temperature for 30–40 min (H2O2) or 10–15 min (ΔΨm) after the addition of substrate, and endpoint fluorescence was measured on the Victor plate reader. Endpoints were chosen for the H2O2 assays to provide good signal-to-noise ratios and linear rates of change without the indicator dye limiting the reaction. Endpoints for the ΔΨm assays were determined in pilot experiments as the times for TMRM accumulation to reach a steady state. […] Endpoint fluorescence values were normalized as described in the previous section with wells containing FCCP serving as positive controls for the ΔΨm assays.

mGPDH [4] = target: T2, mGPDH (Rattus norvegicus, UniProt P35571); test: Superoxide/H2O2 production by mGPDH in isolated skeletal muscle mitochondria (Amplex UltraRed); assay type: biochemical; details: for inhibition at 80 µM: read-out: mGPDH H2O2 production (% change at 80 μM)
T2 construct: Activity of mGPDH in frozen-thawed skeletal muscle mitochondria was measured; from tissue; host or cells: skeletal muscle mitochondria
T2 sequence (P35571 43-727): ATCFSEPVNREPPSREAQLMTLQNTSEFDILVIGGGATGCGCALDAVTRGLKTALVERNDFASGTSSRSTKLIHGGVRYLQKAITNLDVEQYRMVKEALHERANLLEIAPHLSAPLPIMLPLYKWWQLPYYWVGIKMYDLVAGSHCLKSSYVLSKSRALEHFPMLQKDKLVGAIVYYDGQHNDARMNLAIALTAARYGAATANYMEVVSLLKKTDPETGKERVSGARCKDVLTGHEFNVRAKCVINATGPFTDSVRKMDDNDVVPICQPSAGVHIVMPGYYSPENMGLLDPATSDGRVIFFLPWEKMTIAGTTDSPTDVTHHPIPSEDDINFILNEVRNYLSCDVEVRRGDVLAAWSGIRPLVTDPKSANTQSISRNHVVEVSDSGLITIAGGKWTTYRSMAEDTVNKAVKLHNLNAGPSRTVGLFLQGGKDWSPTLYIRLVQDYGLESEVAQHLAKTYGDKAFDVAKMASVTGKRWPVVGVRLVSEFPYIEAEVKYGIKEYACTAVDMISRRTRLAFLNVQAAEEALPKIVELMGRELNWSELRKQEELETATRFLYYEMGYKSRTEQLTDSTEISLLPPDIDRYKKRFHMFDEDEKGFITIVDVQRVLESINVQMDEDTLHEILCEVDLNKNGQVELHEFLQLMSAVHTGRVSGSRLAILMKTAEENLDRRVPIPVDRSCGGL

[5] = tested on: ubiquinone-binding site of complex I (site IQ); test: Site-specific H2O2 production from site IQ in skeletal muscle mitochondria; assay type: biochemical, rat; details: 5 mM succinate;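 further: H2O2 from superoxide detected by Amplex UltraRed fluorescence with added superoxide dismutase and horseradish peroxidase, endpoint read 30–40 min after substrate addition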
Description: Superoxide was measured as H2O2 after dismutation by endogenous or exogenous superoxide dismutase. Rates of total superoxide/H2O2 production were measured fluorimetrically using Amplex UltraRed in the presence of exogenous superoxide dismutase and horseradish peroxidase in a Varian Cary Eclipse fluorimeter as previously described [27]. Rates of production from specific sites were determined as previously described using the following eight conditions: flavin mononucleotide site of complex I (site IF) plus matrix NAD-linked dehydrogenases (collectively "site IF/DH") with 5 mM glutamate, 5 mM malate, and 4 µM rotenone [28]; ubiquinone-binding site of complex I (site IQ) with either 0.5 or 5 mM succinate [29]; flavin site of complex II (site IIF) with either 15 µM palmitoylcarnitine, 2.5 µM antimycin A, and 2 µM myxothiazol or 0.5 mM succinate, 4 µM rotenone, 2.5 µM antimycin A, and 2 µM myxothiazol [30], [31]; mGPDH with 1.7 mM glycerol phosphate, 4 µM rotenone, 2.5 µM antimycin A, 2 µM myxothiazol, 1 mM malonate, and 250 nM free calcium; outer ubiquinone-binding site of complex III (site IIIQo) with either 0.5 or 5 mM succinate, 4 µM rotenone and 2.5 µM antimycin A [32]. Candidate small-molecule inhibitors were added prior to the start of measurements and H2O2 calibration curves were performed in the presence of tested compounds.
3,200 compounds were tested initially at 2.5 µM (0.025% DMSO final) in duplicate on different plates against a panel of five distinct assays of site-specific superoxide/H2O2 production as described in the previous section with minor changes. […] Endpoint fluorescence was measured on a Perkin Elmer Victor V3 fluorescent plate reader. The fluorescence intensity of each well was normalized as % change from the average of eight DMSO controls on the same plate. Duplicate wells of each of four modulators of mitochondrial metabolism known to inhibit specific sites of superoxide/H2O2 production were included on each plate as positive controls and the resulting fluorescence levels set as −100% change from DMSO controls. Known inhibitors included 20 mM aspartate (for site IF/DH), 1 µM FCCP (for site IQ), 10 mM malonate (for site IIF), and 2 µM myxothiazol (for site IIIQo). The background fluorescence of the FCCP wells in the site IQ assay was used to normalize mGPDH plates run in parallel. To minimize position-dependent effects across each assay plate, Tukey’s two-way median polish was applied to fluorescence values after initial normalization [35], [36]. Tukey’s polish is an iterative subtraction of the median row and column values from each well’s given row or column. The procedure is repeated until sequential medians for each row and column are zero and positional gradients in fluorescence are eliminated.
These 20 compounds were tested in duplicate at 0.08–80 µM (0.1% DMSO final) in microplate format for effects on site-specific H2O2 production as described above. […] Plates were incubated in the dark at room temperature for 30–40 min (H2O2) or 10–15 min (ΔΨm) after the addition of substrate, and endpoint fluorescence was measured on the Victor plate reader. Endpoints were chosen for the H2O2 assays to provide good signal-to-noise ratios and linear rates of change without the indicator dye limiting the reaction.

[6] = tested on: flavin mononucleotide site of complex I (site IF) plus matrix NAD-linked dehydrogenases (site IF/DH); test: Site-specific H2O2 production from site IF/DH in skeletal muscle mitochondria; assay type: biochemical, rat; details: primary screen, ∼2.5 µM, average of duplicates
How it was run: as §1

[7] = tested on: skeletal muscle mitochondria; test: Mitochondrial membrane potential (ΔΨm, TMRM) powered by glutamate plus malate; assay type: biochemical, rat; details: for ΔΨm with Glu + Mal + Nig (% change at 80 μM) / ΔΨm with Glu + Mal (% change at 80 μM): 5 mM glutamate, 5 mM malate; for ΔΨm with Glu + Mal + Nig (% change at 80 μM): with nigericin; for ΔΨm with Glu + Mal (% change at 80 μM): without nigericin
Description: as §2, §3

[8] = target: T3, outer ubiquinone-binding site of complex III (site IIIQo) (Rattus norvegicus, UniProt P00159+P20788); test: Site-specific H2O2 production from site IIIQo in skeletal muscle mitochondria; assay type: biochemical; details: primary screen, ∼2.5 µM, average of duplicates; 5 mM succinate
T3 construct: from tissue; host or cells: skeletal muscle mitochondria
How it was run: as §1

mGPDH [9] = target: T2, mGPDH; test: mGPDH enzymatic activity (DCPIP-linked reduction by glycerol phosphate) in frozen-thawed skeletal muscle mitochondria; assay type: biochemical
Description: Activity of mGPDH in frozen-thawed skeletal muscle mitochondria was measured as 2,6-dichlorophenolindophenol (DCPIP)-linked reduction by glycerol phosphate as described previously in the presence of 1 µM free calcium. Linear rates of change in absorbance (λ = 600 nm) were measured on the PHERAstar microplate reader and converted to rates of DCPIP reduction using an extinction coefficient of 21 mM^−1 ⋅ cm^−1 and a calculated pathlength of 0.6 cm. Kinetic parameters and inhibitor constants were determined by co-varying glycerol phosphate and novel inhibitors according to recommended procedures and calculated for each data set using GraphPad Prism. Vmax and Km were determined using hyperbolic curves fit to the Michaelis-Menten equation: rate = (Vmax ⋅ [substrate]) ⋅ (K m+[substrate])^ −1. Hill Slope and IC50 were determined using unconstrained, sigmoidal dose-response curve fits of % remaining activity against concentration of iGP. K ic and K iu were determined using plots of rate^−1 vs iGP and GP ⋅ rate^−1 vs iGP, respectively. Linear regression analysis yielded an average x-coordinate at which the best-fit lines intersect. These x-coordinates correspond to -K ic and -K iu in their respective plots. The apparent Vmax of mGPDH is dependent upon the concentration of DCPIP used, [38]. Therefore, to determine the maximal activity of mGPDH in isolated synaptosomes, DCPIP was replaced by 1 mM potassium ferricyanide and linear rates of change in absorbance (λ = 420 nm) were converted to rates of ferricyanide reduction using an extinction coefficient of 1.04 mM^−1 ⋅ cm^−1 and a calculated pathlength of 0.6 cm.

[10] = tested on: skeletal muscle mitochondria; test: Mitochondrial respiration (Seahorse XF24) in plate-attached skeletal muscle mitochondria; assay type: biochemical, rat
Description: The effects of small-molecule inhibitors on respiration were tested in plate-attached skeletal muscle mitochondria using a Seahorse XF24 Analyzer according to published protocols. Briefly, mitochondria (2 or 4 µg protein) were attached to Seahorse assay plates by centrifugation in a mannitol and sucrose-based medium (Seahorse MAS buffer) containing 0.3% (w/v) BSA without or with 250 nM free calcium at pH 7.0. […] Compounds were added in these media just prior to loading the assay plate into the Seahorse instrument. Additions were made to set respiration in basal state 2 (substrate only), phosphorylating state 3 (5 mM ADP), non-phosphorylating state 4o (0.5 ug ⋅ mL^−1 oligomycin), and to reveal the non-mitochondrial rate (2 µM myxothiazol and 2.5 µM antimycin A). Each concentration of compound was tested in at least two wells on each plate. At least three biological replicates of each titration in each substrate condition were performed.

[11] = Fig. 4 structure/activity microplate assay, 0.08–80 µM, estimated, means of two replicates, read-out: mGPDH H2O2 production IC50

Row | SMILES | IQ H2O2 production with 5 mM Suc (% change at 80 μM) [5] [%] | ΔΨm with Glu + Mal + Nig (% change at 80 μM) [7] [%] | ΔΨm with Glu + Mal (% change at 80 μM) [7] [%] | ΔΨm with GP + Nig (% change at 80 μM) [2] [%] | IC50 (mGPDH [4]; [11]) [µM] | inhibition at 80 µM (mGPDH [4]) [%] | other results
1 | NOCC(=O)O [aminooxyacetate, reference compound] | – | – | – | – | – | – | effect on basal or maximal respiration with pyruvate (cortical synaptosomes; 10 mM pyruvate): no effect; effect on basal and maximal respiration with glucose (cortical synaptosomes; 15 mM glucose, no oxamate): inhibited
2 | O=CC(O)COP(=O)(O)O (centres unmarked) [glyceraldehyde 3-phosphate, reference compound] | – | – | – | – | – | – | effect on the rate of H2O2 production from site IIF ([1]; 0.5 mM succinate, rotenone, myxothiazol, antimycin A, Fig. 2B): significantly inhibited; effect on ΔΨm powered by glycerol phosphate ([2]; all concentrations tested, rotenone, atpenin A5, nigericin): significantly decreased; effect on ΔΨm powered by succinate [3]: significantly increased; inhibition at 2500 µM (mGPDH [4]; 2.5 mM, 1.7 mM glycerol phosphate, 250 nM free calcium, read-out: inhibition of the rate of H2O2 production from mGPDH): ~80%
3 | O=C(O)CCC(=O)Nc1ccc(-c2nc3ccccc3o2)cc1 [iGP-2] | -57 | 18 | 107 | 1 | 20 | 50 | IQ (% change from DMSO) ([5]; primary screen, ∼2.5 µM, average of duplicates): 0.759%; IF/DH (% change from DMSO) [6]: -2.6%; ΔΨm (% change from DMSO) ([7]; primary screen, ∼2.5 µM, average of duplicates, glutamate and malate): 0.8%; IIF (% change from DMSO) ([1]; primary screen, ∼2.5 µM, average of duplicates, palmitoylcarnitine): 2.1%; mGPDH (% change from DMSO) (mGPDH [4]; primary screen, ∼2.5 µM, average of duplicates, 16.7 mM glycerol phosphate, no added calcium): -12.2%; IIIQo (% change from DMSO) [8]: 2.5%
4 | O=C(O)CCC(=O)Nc1ccc(-c2nc3cc4ccccc4cc3[nH]2)cc1 [iGP-5] | -9 | 20 | 106 | -26 | 0.7 | 65 | mGPDH Activity Hill Slope (mGPDH [9]; 1 µM free calcium): 0.85 and 0.85±0.07; IC50 (mGPDH [9]; 1 µM free calcium, Fig. 9A): 1 ± 0.2 µM; K iu (uncompetitive inhibitor dissociation constant) (mGPDH [9]; co-varying glycerol phosphate and inhibitor): 1.1 ± 0.0 µM; Ki (mGPDH [9]; co-varying glycerol phosphate and inhibitor, read-out: K ic (competitive inhibitor dissociation constant)): 0.7 µM; effect on ΔΨm powered by glutamate and malate ([7]; 25 µM, only in the absence of nigericin): significantly increased; effect on state 3 respiration with pyruvate and malate ([10]; 80 µM): significantly reduced; effect on glycerol phosphate-dependent state 3 respiration ([10]; 25 and 80 µM): significantly decreased; effect on ΔΨm powered by glycerol phosphate ([2]; 2.5 and 25 µM): significantly decreased; IC50 (mGPDH [4]; Fig. 9B, read-out: mGPDH H2O2 Production IC50): 1 ± 0.1 µM; IC50 (mGPDH [4]; titration up to 80 µM (Fig. 6B, Fig. 7B), read-out: half-maximal effect on H2O2 production by mGPDH): ~1 µM
5 | Cc1ccc(NC(=O)CCC(=O)O)cc1 [iGP-19] | 7 | -2 | -8 | -2 | – | 1 | –
6 | COC(=O)CCC(=O)Nc1ccc(C)cc1 [iGP-20] | -8 | -1 | -3 | 0 | – | 20 | –
